Our source for the pest or weed control values is US10206394B2, “Herbicidal compounds” (Syngenta Participations AG, priority 2014, dated 2019).

Read-outs that look alike come from different tables or passages of the source.

Test in all cases: Glasshouse assay for herbicidal activity (pre- and post-emergence), percentage phytotoxicity
Holding throughout (format): in vivo

For one test, the system named is Lolium perenne (LOLPE). Conditions: Lolium perenne. In outline:
(§1)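 Percent injury was estimated by eye on a scale where 0% means no damage and 100% complete damage. Ratings came 15 DAA post-emergence and 20 DAA pre-emergence, with plants held under 16 h light and 65% humidity at 24/18 °C or 20/16 °C day/night.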

Test [1] deals with Alopecurus myosuroides (ALOMY). Conditions: Alopecurus myosuroides. An outline of the steps: as §1
The test system of test [2] is Echinochloa crus-galli (ECHCG). Conditions: Echinochloa crus-galli. An outline of the steps: as §1
In the next test the test system is Avena fatua (AVEFA). Conditions: Avena fatua. In outline: as §1
[3] abbreviates: post-emergence, 360 h, Rate 250 g/ha, post-emergence, assessed visually 15 DAA, 100%=total damage, 0%=no damage, read-out: Post-emergence herbicidal activity (percentage phytotoxicity) LOLPE POST.
Setting [4] is: pre-emergence, 480 h, Rate 250 g/ha, pre-emergence, assessed visually 20 DAA, 100%=total damage, 0%=no damage, read-out: Pre-emergence herbicidal activity (percentage phytotoxicity) LOLPE PRE.
[5] abbreviates: post-emergence, 360 h, Rate 250 g/ha, post-emergence, assessed visually 15 DAA, 100%=total damage, 0%=no damage, read-out: Post-emergence herbicidal activity (percentage phytotoxicity) ALOMY POST.
The mark [6] stands for this setting: pre-emergence, 480 h, Rate 250 g/ha, pre-emergence, assessed visually 20 DAA, 100%=total damage, 0%=no damage, read-out: Pre-emergence herbicidal activity (percentage phytotoxicity) ALOMY PRE.
Where [7] appears, read: post-emergence, 360 h, Rate 250 g/ha, post-emergence, assessed visually 15 DAA, 100%=total damage, 0%=no damage, read-out: Post-emergence herbicidal activity (percentage phytotoxicity) ECHCG POST.
Where [8] appears, read: pre-emergence, 480 h, Rate 250 g/ha, pre-emergence, assessed visually 20 DAA, 100%=total damage, 0%=no damage, read-out: Pre-emergence herbicidal activity (percentage phytotoxicity) ECHCG PRE.
The mark [9] stands for this setting: post-emergence, 360 h, Rate 250 g/ha, post-emergence, assessed visually 15 DAA, 100%=total damage, 0%=no damage, read-out: Post-emergence herbicidal activity (percentage phytotoxicity) AVEFA POST.
[10] abbreviates: pre-emergence, 480 h, Rate 250 g/ha, pre-emergence, assessed visually 20 DAA, 100%=total damage, 0%=no damage, read-out: Pre-emergence herbicidal activity (percentage phytotoxicity) AVEFA PRE.
Setting [11] is: post-emergence, 360 h, POST-emergence, rate 250 g/ha, visual score 15 DAA (100%=total damage, 0%=no damage), read-out: Post-emergence herbicidal activity (percentage phytotoxicity) LOLPE POST.
Setting [12] is: pre-emergence, 480 h, PRE-emergence, rate 250 g/ha, visual score 20 DAA (100%=total damage, 0%=no damage), read-out: Pre-emergence herbicidal activity (percentage phytotoxicity) LOLPE PRE.
Setting [13] is: post-emergence, 360 h, POST-emergence, rate 250 g/ha, visual score 15 DAA (100%=total damage, 0%=no damage), read-out: Post-emergence herbicidal activity (percentage phytotoxicity) ALOMY POST.
Where [14] appears, read: pre-emergence, 480 h, PRE-emergence, rate 250 g/ha, visual score 20 DAA (100%=total damage, 0%=no damage), read-out: Pre-emergence herbicidal activity (percentage phytotoxicity) ALOMY PRE.
Where [15] appears, read: post-emergence, 360 h, POST-emergence, rate 250 g/ha, visual score 15 DAA (100%=total damage, 0%=no damage), read-out: Post-emergence herbicidal activity (percentage phytotoxicity) ECHCG POST.
[16] abbreviates: pre-emergence, 480 h, PRE-emergence, rate 250 g/ha, visual score 20 DAA (100%=total damage, 0%=no damage), read-out: Pre-emergence herbicidal activity (percentage phytotoxicity) ECHCG PRE.
Setting [17] is: post-emergence, 360 h, POST-emergence, rate 250 g/ha, visual score 15 DAA (100%=total damage, 0%=no damage), read-out: Post-emergence herbicidal activity (percentage phytotoxicity) AVEFA POST.
[18] abbreviates: pre-emergence, 480 h, PRE-emergence, rate 250 g/ha, visual score 20 DAA (100%=total damage, 0%=no damage), read-out: Pre-emergence herbicidal activity (percentage phytotoxicity) AVEFA PRE.
The mark [19] stands for this setting: post-emergence, 360 h, 250 g/ha, post-emergence, 15 DAA, visual assessment (100%=total damage, 0%=no damage), read-out: Post-emergence herbicidal activity (percentage phytotoxicity) LOLPE POST.
[20] abbreviates: pre-emergence, 480 h, 250 g/ha, pre-emergence, 20 DAA, visual assessment (100%=total damage, 0%=no damage), read-out: Pre-emergence herbicidal activity (percentage phytotoxicity) LOLPE PRE.
[21] abbreviates: post-emergence, 360 h, 250 g/ha, post-emergence, 15 DAA, visual assessment (100%=total damage, 0%=no damage), read-out: Post-emergence herbicidal activity (percentage phytotoxicity) ALOMY POST.
Setting [22] is: pre-emergence, 480 h, 250 g/ha, pre-emergence, 20 DAA, visual assessment (100%=total damage, 0%=no damage), read-out: Pre-emergence herbicidal activity (percentage phytotoxicity) ALOMY PRE.
The mark [23] stands for this setting: post-emergence, 360 h, 250 g/ha, post-emergence, 15 DAA, visual assessment (100%=total damage, 0%=no damage), read-out: Post-emergence herbicidal activity (percentage phytotoxicity) ECHCG POST.
Where [24] appears, read: pre-emergence, 480 h, 250 g/ha, pre-emergence, 20 DAA, visual assessment (100%=total damage, 0%=no damage), read-out: Pre-emergence herbicidal activity (percentage phytotoxicity) ECHCG PRE.
Setting [25] is: post-emergence, 360 h, 250 g/ha, post-emergence, 15 DAA, visual assessment (100%=total damage, 0%=no damage), read-out: Post-emergence herbicidal activity (percentage phytotoxicity) AVEFA POST.
The mark [26] stands for this setting: pre-emergence, 480 h, 250 g/ha, pre-emergence, 20 DAA, visual assessment (100%=total damage, 0%=no damage), read-out: Pre-emergence herbicidal activity (percentage phytotoxicity) AVEFA PRE.

With `Cc1cc(C)c(C2C(=O)CC(CC(=O)NCc3ccc(C)o3)C2=O)c(C)c1` (stereo not drawn) [Compound A97], the pest or weed control at 250 g/ha in the test with Lolium perenne (LOLPE) (setting [3]) is 70%; with Lolium perenne (LOLPE) (setting [4]), 90%; in test [1] (setting [5]) it was 70%; in test [1] (setting [6]) it was 30%; in test [2] (setting [7]), 0%; in test [2] (setting [8]) it was 0%. Besides, the pest or weed control at 250 g/ha with Avena fatua (AVEFA) (setting [9]) stood at 20%; in the test with Avena fatua (AVEFA) (setting [10]), 0%.

`CC#Cc1cc(C)c(C2C(=O)CC(CC(=O)NCc3ccccc3)C2=O)c(C)c1` (stereo not drawn) [Compound B185]: the pest or weed control at 250 g/ha in the test on Lolium perenne (LOLPE) (setting [11]) is 100%; in the test on Lolium perenne (LOLPE) (setting [12]), 70%; in test [1] (setting [13]), 100%; in test [1] (setting [14]), 80%; in test [2] (setting [15]), 100%; in test [2] (setting [16]), 100%. Further, the pest or weed control at 250 g/ha in the test with Avena fatua (AVEFA) (setting [17]) turned out to be 100%; with Avena fatua (AVEFA) (setting [18]), 60%.

Regarding `C/C=C/c1cc(C)c(C2C(=O)CC(CC(=O)NCc3cccc(Cl)c3)C2=O)c(CC)c1` (stereo not drawn) [Compound B187], the pest or weed control at 250 g/ha is 90% in the test on Lolium perenne (LOLPE) (setting [11]); 80% in the test on Lolium perenne (LOLPE) (setting [12]); 70% in test [1] (setting [13]); 70% in test [1] (setting [14]); 100% in test [2] (setting [15]); 80% in test [2] (setting [16]). Besides, the pest or weed control at 250 g/ha with Avena fatua (AVEFA) (setting [17]) came to 70%; in the test with Avena fatua (AVEFA) (setting [18]), 10%.

As to `C#CCN(C)C(=O)CC1CC(=O)C(c2c(C)cc(-c3ncc(Cl)cn3)cc2C)C1=O` (stereo not drawn) [Compound B349], the pest or weed control at 250 g/ha with Lolium perenne (LOLPE) (post-emergence, 360 h, Rate 250 g/ha, post-emergence, visual assessment 15 DAA, 100%=total damage, 0%=no damage, read-out: Post-emergence herbicidal activity (percentage phytotoxicity) LOLPE POST) is 100%; in the test with Lolium perenne (LOLPE) (pre-emergence, 480 h, Rate 250 g/ha, pre-emergence, visual assessment 20 DAA, 100%=total damage, 0%=no damage, read-out: Pre-emergence herbicidal activity (percentage phytotoxicity) LOLPE PRE), 90%; in test [1] (post-emergence, 360 h, Rate 250 g/ha, post-emergence, visual assessment 15 DAA, 100%=total damage, 0%=no damage, read-out: Post-emergence herbicidal activity (percentage phytotoxicity) ALOMY POST), 100%; in test [1] (pre-emergence, 480 h, Rate 250 g/ha, pre-emergence, visual assessment 20 DAA, 100%=total damage, 0%=no damage, read-out: Pre-emergence herbicidal activity (percentage phytotoxicity) ALOMY PRE) it was 100%; in test [2] (post-emergence, 360 h, Rate 250 g/ha, post-emergence, visual assessment 15 DAA, 100%=total damage, 0%=no damage, read-out: Post-emergence herbicidal activity (percentage phytotoxicity) ECHCG POST), 100%; in test [2] (pre-emergence, 480 h, Rate 250 g/ha, pre-emergence, visual assessment 20 DAA, 100%=total damage, 0%=no damage, read-out: Pre-emergence herbicidal activity (percentage phytotoxicity) ECHCG PRE), 90%. Further, the pest or weed control at 250 g/ha with Avena fatua (AVEFA) (post-emergence, 360 h, Rate 250 g/ha, post-emergence, visual assessment 15 DAA, 100%=total damage, 0%=no damage, read-out: Post-emergence herbicidal activity (percentage phytotoxicity) AVEFA POST) was determined as 100%; in the test on Avena fatua (AVEFA) (pre-emergence, 480 h, Rate 250 g/ha, pre-emergence, visual assessment 20 DAA, 100%=total damage, 0%=no damage, read-out: Pre-emergence herbicidal activity (percentage phytotoxicity) AVEFA PRE), 90%.

As to `Cc1cc(C)c(C2C(=O)CC(CC(=O)NC3(C)CCCC3)C2=O)c(C)c1` (stereo not drawn) [Compound B41], the pest or weed control at 250 g/ha in the test with Lolium perenne (LOLPE) (setting [19]) was determined as 60%; in the test on Lolium perenne (LOLPE) (setting [20]), 70%; in test [1] (setting [21]), 80%; in test [1] (setting [22]), 70%; in test [2] (setting [23]) it was 60%; in test [2] (setting [24]), 60%. The values for the pest or weed control at 250 g/ha in the test with Avena fatua (AVEFA) (setting [25]) and in the test on Avena fatua (AVEFA) (setting [26]) were 70% and 30%, respectively.

On to `CC#Cc1cc(C)c(C2C(=O)CC(CC(=O)NC3CCCC3)C2=O)c(C)c1` (stereo not drawn) [Compound A62], for which the pest or weed control at 250 g/ha with Lolium perenne (LOLPE) (setting [3]) worked out at 60%; in the test with Lolium perenne (LOLPE) (setting [4]), 100%; in test [1] (setting [5]) it was 90%; in test [1] (setting [6]), 100%; in test [2] (setting [7]), 100%; in test [2] (setting [8]) it was 100%. The pest or weed control at 250 g/ha in the test on Avena fatua (AVEFA) (setting [9]) and with Avena fatua (AVEFA) (setting [10]) was 90% each time.

Regarding `COc1cccc(CNC(=O)CC2CC(=O)C(c3c(C)cc(-c4ncc(Cl)cc4F)cc3C)C2=O)c1` (stereo not drawn) [Compound B131], the pest or weed control at 250 g/ha with Lolium perenne (LOLPE) (setting [19]) came out at 90%; in the test on Lolium perenne (LOLPE) (setting [20]), 80%; in test [1] (setting [21]), 90%; in test [1] (setting [22]), 80%; in test [2] (setting [23]), 100%; in test [2] (setting [24]), 90%. The pest or weed control at 250 g/ha with Avena fatua (AVEFA) (setting [25]) stood at 100%; in the test on Avena fatua (AVEFA) (setting [26]) it was 30%.

As to `C=CCNC(=O)CC1CC(=O)C(c2c(C)cc(C#CC)cc2C)C1=O` (stereo not drawn) [Compound B157], the pest or weed control at 250 g/ha (in the test with Lolium perenne (LOLPE) (setting [19]); in the test with Lolium perenne (LOLPE) (setting [20]); in test [1] (setting [21]); in test [1] (setting [22]); in test [2] (setting [23]); in test [2] (setting [24])) was 100% each time. Besides, the pest or weed control at 250 g/ha worked out at 100% in the test on Avena fatua (AVEFA) (setting [25]) and 90% in the test on Avena fatua (AVEFA) (setting [26]).

Take `Cc1cc(C)c(C2C(=O)CC(CC(=O)NCc3ncccc3C)C2=O)c(C)c1` (stereo not drawn) [Compound B67]: the pest or weed control at 250 g/ha came to 70% in the test with Lolium perenne (LOLPE) (setting [19]); 90% with Lolium perenne (LOLPE) (setting [20]); 90% in test [1] (setting [21]); 90% in test [1] (setting [22]); 80% in test [2] (setting [23]); 90% in test [2] (setting [24]). Also, the pest or weed control at 250 g/ha with Avena fatua (AVEFA) (setting [25]) worked out at 80%; in the test with Avena fatua (AVEFA) (setting [26]), 10%.
